PubChem BioAssay AID449750 (Broad Institute, 2010)
“And” between values parts separate entries of the source, which are not always exact repeats. Identical values can stand only once. The source made the active and inactive calls. No rule for the calls is given here.

Assay: non-covalent RecA intein splicing inhibitors, dose response, biochemical, cell-free, fluorescence, secondary screen (AID 449750)

Compound | AC50
N#Cc1c(-c2ccccc2)nc(SCC(=O)N2c3ccccc3Sc3ccccc32)[nH]c1=O | 8.24 µM
Cc1ccc(NC2=CC(=O)C(=O)c3ccccc32)cc1 | 6.16 µM
Cc1nn(-c2ccccc2)c2c1C(c1cccs1)C(C#N)=C(N)O2 (stereo not drawn) | 18.3 µM
CCOC(=O)C1=C(C)NC2(O)c3ccccc3C(=O)C12O (stereo not drawn) | 7.53 µM
CCc1nnc(NC(=O)c2nc(S(=O)(=O)Cc3ccccc3)ncc2Cl)s1 | 31.2 µM
CCc1ccc(NC(=O)c2nc(S(=O)(=O)Cc3ccccc3)ncc2Cl)cc1 | > 38 µM (inactive)
COc1ccccc1Oc1cc(C#N)c(C#N)cc1-n1nnc2ccccc21 | 16.5 µM
O=[N+]([O-])c1cc(Br)c(Nc2ccccc2)c([N+](=O)[O-])c1 | 7.02 µM
Nn1cnnc1N/N=C/c1ccc(Cl)c([N+](=O)[O-])c1 | > 38 µM (inactive)
O=C1C(Cl)=C(N2CCOCC2)C(=O)N1c1ccccc1Cl | > 38 µM (inactive)
O=C(Nc1cccc(OC(=O)c2ccco2)c1)c1ccco1 | > 38 µM (inactive)
CC1=NN(c2ccccc2)C(=O)/C1=C/c1cn(C)c2ccccc12 | > 38 µM (inactive)
CCCCCc1c2c(cc(O)c1C(=O)O)OC(=O)c1c(cc(OC)cc1C(=O)CCCC)O2 | 8.72 µM
Cc1[nH][nH]c(=O)c1C(c1ccc(-c2ccc(Cl)c(Cl)c2)o1)c1c(C)[nH][nH]c1=O | 3.11 µM
N#C/C(=C\c1ccc(O)c([N+](=O)[O-])c1)c1nc2ccccc2s1 | 33.8 µM
Cc1ccc(-c2[nH]nc3c2C(c2ccc(OC(=O)N4CCOCC4)cc2)C(C#N)=C(N)O3)cc1 (stereo not drawn) | 21.1 µM
COc1cc(/C=C(\C#N)C(=O)c2c[nH]c3ccccc23)cc(OC)c1O | > 38 µM (inactive)
COc1ccc(N(C(=O)CCl)C(C(=O)NC2CCCCC2)c2cccnc2)cc1 (stereo not drawn) | 3.87 µM
CCCCCCCCCCOC(=O)Cn1c(COc2ccc(OC)cc2)[n+](C)c2ccccc21 | 8.31 µM and 8.42 µM
c1ccc(C2[C@H]3CN(Cc4cccnc4)[C@H](c4ccccc4)C34CC2(c2cccnc2)C4)cc1 (stereo partly drawn) | 10.7 µM
COc1ccc(N(C(=O)CCl)C(C(=O)NCCc2ccccc2)c2cccs2)cc1 (stereo not drawn) | 0.958 µM
COc1ccccc1N(C(=O)CCl)c1cn(C(C)=O)c2ccccc12 | 2.36 µM
Cc1[nH][nH]c(=O)c1C(c1ccc(-c2ccc(F)cc2)o1)c1c(C)[nH][nH]c1=O | 3.95 µM
Cc1ccc(C2=NN(C(=O)CCl)C(c3ccco3)C2)o1 (stereo not drawn) | 6.65 µM
CCCCCC(=O)O[C@]1(C(C)=O)CC[C@H]2[C@@H]3CCC4=CC(=O)CC[C@]4(C)[C@H]3CC[C@@]21C | 2.02 µM
CC1=NN(c2ccccc2)C(=O)C1=C(C)C | 15.9 µM
COC(=O)c1ccccc1Sc1ncnc2onc(C)c12 | > 38 µM (inactive)

Compound | AC50
Cc1[nH][nH]c(=O)c1C(c1ccc([N+](=O)[O-])cc1)c1c(C)[nH][nH]c1=O | 25.4 µM
CC1=NN(c2ccc(C(=O)O)c(N)c2)C(=O)C1 | 2.87 µM
O=C(OCn1ncc(Cl)c(Cl)c1=O)c1cccc(C(F)(F)F)c1 | 12.9 µM
O=c1[nH]c2ccccc2n2c(-c3ccccc3)nnc12 | 22.5 µM
COc1ccc2noc3c2c1C(=O)c1ccccc1-3 | 24.8 µM
CCOC(=O)c1nn(-c2ccccc2C)c(=O)c2c(N)scc12 | > 38 µM (inactive)
CC(=O)n1cc(N(C(=O)CCl)c2ccc(C)cc2)c2ccccc21 | 1.38 µM
O=C(O)CC1S/C(=N/N=C/c2ccc(-c3ccccc3[N+](=O)[O-])o2)NC1=O (stereo not drawn) | 9.4 µM
COc1ccc(-c2cc(=O)[nH][nH]2)cc1 | 8.39 µM
O=C(CN(c1cccc(Br)c1)S(=O)(=O)c1ccccc1)N/N=C/c1cc([N+](=O)[O-])ccc1O | > 38 µM (inactive)
CC(C)(C)Nc1nc(Cl)nc(N(C#N)CN2C(=O)c3ccccc3S2(=O)=O)n1 | > 38 µM (inactive)
NC1=C(Br)C(=O)c2ccccc2C1=O | 13.1 µM
CCOC(=O)c1cc2cc3ccccc3cc2[nH]1 | > 38 µM (inactive)
CC(=O)N(C1CC(C)C(C#N)(C#N)C1(C#N)C#N)N(C)C (stereo not drawn) | > 38 µM (inactive)
CC1(C)CC(C(CCN(Cc2ccccc2)C(=O)c2ccco2)c2ccc(F)cc2)CCO1 (stereo not drawn) | 5.14 µM
Nc1c(O)cccc1C(=O)O | 27.2 µM
O=C(C(=C1N(Cc2ccc(Cl)nc2)CCN1Cc1ccc(Cl)nc1)[N+](=O)[O-])C(Cl)Cl | > 38 µM (inactive)
CC(C)(C)c1cc(C(=O)CCN2CCOCC2)cc(C(C)(C)C)c1O | 12.1 µM
COC(=O)C(O)(c1c(C)[nH]n(-c2ccccc2)c1=O)C(F)(F)F (stereo not drawn) | 5.49 µM
O=C(O)CN1C(=O)/C(=C\c2cccc(OC(=O)c3ccco3)c2)SC1=S | > 38 µM (inactive)
CN(CCc1cnn(C)c1)C(=O)C1CCC(=O)N(CC2CCCCC2)C1 (stereo not drawn) | > 38 µM (inactive)
COc1nc(N/N=C/c2ccc(-c3ccccc3[N+](=O)[O-])o2)nc(N2CCOCC2)n1 | 23.2 µM
Nc1c(N2CCCC2)cc(Cl)c2nonc12 | 4.13 µM
COc1cc(C(c2c(C)[nH][nH]c2=O)c2c(C)[nH][nH]c2=O)cc(OC)c1OC | 11.8 µM
O=c1[nH]cc(N=Cc2cc(Cl)cc(Cl)c2O)c(=O)[nH]1 | > 38 µM (inactive)
CN1CCN(C(c2ccc(Cl)cc2)c2cc(Cl)c3cccnc3c2O)CC1 (stereo not drawn) | 24.8 µM
